Drawing on patent US10005774B2, “Syk inhibitors” (Gilead Sciences, Inc., priority 2013, dated 2018), this text covers IC50 for 25 compounds.

Each structure is given as a SMILES string.

One assay has as its target Syk (Homo sapiens, UniProt P43405). The assay is described as follows: High Throughput Syk Biochemical Assay (KinEASE TR-FRET). The following applies: TABLE D, 20 μM ATP, 1 μM biotinylated peptide, 0.015 nM Syk, 30 min at room temperature, read-out: IC50. The method in brief: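 Two-step endpoint TR-FRET (KinEASE) measured Syk phosphorylation of an XL665-labelled peptide, detected with europium anti-phosphotyrosine antibody. Compounds were serially diluted in DMSO.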
On to `C[C@@H](Oc1nc(-c2ccc3cnn(C)c3c2)cc2ncn(C)c12)[C@H]1CNC(=O)C1` [(R)-4-((R)-1-((3-methyl-6-(1-methyl-1H-indazol-6-yl)-3H-imidazo[4,5-c]pyridin-4-yl)oxy)ethyl)pyrrolidin-2-one], for which the IC50 stood at 16.8 nM.

`Cc1nc2cc(-c3cc4ncn(C)c4c(O[C@H](C)[C@H]4CNC(=O)C4)n3)ccc2s1` [(R)-4-((R)-1-((3-methyl-6-(2-methylbenzo[d]thiazol-5-yl)-3H-imidazo[4,5-c]pyridin-4-yl)oxy)ethyl)pyrrolidin-2-one]: the IC50 amounted to 12.4 nM.

As to `Cc1cnn2cc(-c3ccc(N4CCOCC4)cc3)nc(O[C@H](C)[C@H]3CNC(=O)C3)c12` [(R)-4-((R)-1-((3-methyl-6-(4-morpholinophenyl)pyrazolo[1,5-a]pyrazin-4-yl)oxy)ethyl)pyrrolidin-2-one], the IC50 is 0.377 nM.

Take `C[C@@H](Oc1cc(-c2cnn(C(C)(C)C)c2)cc2ncn(C)c12)[C@H]1CNC(=O)C1` [(R)-4-((R)-1-((5-(1-(tert-butyl)-1H-pyrazol-4-yl)-1-methyl-1H-benzo[d]imidazol-7-yl)oxy)ethyl)pyrrolidin-2-one]: the IC50 came to 5.35 nM.

With `CCn1ccc(-c2cc(O[C@H](C)[C@H]3CNC(=O)C3)c3scnc3c2)n1` [(R)-4-((R)-1-((5-(1-ethyl-1H-pyrazol-3-yl)benzo[d]thiazol-7-yl)oxy)ethyl)pyrrolidin-2-one], the concentration for half-maximal inhibition (IC50) turned out to be 3.36 nM.

Consider `COc1ccc(-c2cc(O[C@H](C)[C@H]3CNC(=O)C3)c3c(c2)ncn3C)cc1OC` [(R)-4-((R)-1-((5-(3,4-dimethoxyphenyl)-1-methyl-1H-benzo[d]imidazol-7-yl)oxy)ethyl)pyrrolidin-2-one], for which the IC50 stood at 38.2 nM.

As to `COc1ccc(-c2cc(O[C@H](C)[C@H]3CNC(=O)C3)c3sc(C)nc3c2)cc1OC` [(R)-4-((R)-1-((5-(3,4-dimethoxyphenyl)-2-methylbenzo[d]thiazol-7-yl)oxy)ethyl)pyrrolidin-2-one], the concentration for half-maximal inhibition (IC50) worked out at 70 nM.

For `COc1cccc(-c2cc(O[C@H](C)[C@H]3CNC(=O)C3)c3c(c2)ncn3C)n1` [(R)-4-((R)-1-((5-(6-methoxypyridin-2-yl)-1-methyl-1H-benzo[d]imidazol-7-yl)oxy)ethyl)pyrrolidin-2-one], the IC50 came out at 45.7 nM.

As to `Cc1nn(C)c2ccc(-c3cc4ncn(C)c4c(O[C@H](C)[C@H]4CNC(=O)C4)n3)cc12` [(R)-4-((R)-1-((6-(1,3-dimethyl-1H-indazol-5-yl)-3-methyl-3H-imidazo[4,5-c]pyridin-4-yl)oxy)ethyl)pyrrolidin-2-one], the IC50 worked out at 10.5 nM.

In the case of `C[C@@H](Oc1cc(-c2cnn(CC(F)F)c2)cn2nccc12)[C@H]1CNC(=O)C1` [(R)-4-((R)-1-((6-(1-(2,2-difluoroethyl)-1H-pyrazol-4-yl)pyrazolo[1,5-a]pyridin-4-yl)oxy)ethyl)pyrrolidin-2-one], the concentration for half-maximal inhibition (IC50) is 10.2 nM.

As for `C[C@@H](Oc1cc(-c2cnn(C(C)(C)C)c2)cn2ncc(Cl)c12)[C@H]1CNC(=O)C1` [(R)-4-((R)-1-((6-(1-(tert-butyl)-1H-pyrazol-4-yl)-3-chloropyrazolo[1,5-a]pyridin-4-yl)oxy)ethyl)pyrrolidin-2-one], the IC50 was 0.271 nM.

As to `COc1cc(-c2cc(O[C@H](C)[C@H]3CNC(=O)C3)c3ccnn3c2)cc(OC)c1OC` [(R)-4-((R)-1-((6-(3,4,5-trimethoxyphenyl)pyrazolo[1,5-a]pyridin-4-yl)oxy)ethyl)pyrrolidin-2-one], the IC50 came to 85.1 nM.

As to `COc1ccc(-c2cn3nc(C)cc3c(O[C@H](C)[C@H]3CNC(=O)C3)n2)cc1OC` [(R)-4-((R)-1-((6-(3,4-dimethoxyphenyl)-2-methylpyrazolo[1,5-a]pyrazin-4-yl)oxy)ethyl)pyrrolidin-2-one], the IC50 is 31.4 nM.

For the compound `COc1ccc(-c2cc(O[C@H](C)[C@H]3CNC(=O)C3)c3c(C)cnn3c2C)cc1OC` [(R)-4-((R)-1-((6-(3,4-dimethoxyphenyl)-3,7-dimethylpyrazolo[1,5-a]pyridin-4-yl)oxy)ethyl)pyrrolidin-2-one], the IC50 was 53.7 nM.

`COc1ccc(-c2cc(O[C@H](C)[C@H]3CNC(=O)C3)c3ccnn3c2)cc1OC` [(R)-4-((R)-1-((6-(3,4-dimethoxyphenyl)pyrazolo[1,5-a]pyridin-4-yl)oxy)ethyl)pyrrolidin-2-one]: the IC50 stood at 39.1 nM.

On to `C[C@@H](Oc1cc(-c2ccc(N3CCOCC3)cc2)cn2nccc12)[C@H]1CNC(=O)C1` [(R)-4-((R)-1-((6-(4-morpholinophenyl)pyrazolo[1,5-a]pyridin-4-yl)oxy)ethyl)pyrrolidin-2-one], for which the IC50 was 7.85 nM.

`COc1ccc(-c2cc(O[C@H](C)[C@H]3CNC(=O)C3)c3ccnn3c2)nc1OC` [(R)-4-((R)-1-((6-(5,6-dimethoxypyridin-2-yl)pyrazolo[1,5-a]pyridin-4-yl)oxy)ethyl)pyrrolidin-2-one]: the concentration for half-maximal inhibition (IC50) came to 4.84 nM.

Still in this assay, the particulars now being: table 'ALL NEW COMPOUNDS IN 2014', 20 μM ATP, 1 μM biotinylated peptide, 0.015 nM Syk, 30 min at room temperature, read-out: Syk IC50.
For `C[C@@H](Oc1nc(-c2ccc(N3CCN(C4COC4)CC3)nc2)cc2ncn(C)c12)[C@H]1CNC(=O)C1` [(R)-4-((R)-1-((3-methyl-6-(6-(4-(oxetan-3-yl)piperazin-1-yl)pyridin-3-yl)-3H-imidazo[4,5-c]pyridin-4-yl)oxy)ethyl)pyrrolidin-2-one], the IC50 came out at 12.4 nM.

Take `C[C@@H](Oc1cc(-c2ccn(C(C)(C)C)n2)cc2ncn(C3CC3)c12)[C@H]1CNC(=O)C1` [(R)-4-((R)-1-((5-(1-(tert-butyl)-1H-pyrazol-3-yl)-1-cyclopropyl-1H-benzo[d]imidazol-7-yl)oxy)ethyl)pyrrolidin-2-one]: the IC50 came to 5.01 nM.

On to `C[C@@H](Oc1cc(-c2cnn(C(C)(C)C)c2)cc2ncn(C3CC3)c12)[C@H]1CNC(=O)C1` [(R)-4-((R)-1-((5-(1-(tert-butyl)-1H-pyrazol-4-yl)-1-cyclopropyl-1H-benzo[d]imidazol-7-yl)oxy)ethyl)pyrrolidin-2-one], for which the IC50 turned out to be 0.454 nM.

With `C[C@@H](Oc1cc(-c2nc(C(C)(C)C)cs2)cc2ncn(C3CC3)c12)[C@H]1CNC(=O)C1` [(R)-4-((R)-1-((5-(4-(tert-butyl)thiazol-2-yl)-1-cyclopropyl-1H-benzo[d]imidazol-7-yl)oxy)ethyl)pyrrolidin-2-one], the IC50 was 0.442 nM.

Take `C[C@@H](Oc1cc(-c2cccc(N)n2)cc2ncn(C3CC3)c12)[C@H]1CNC(=O)C1` [(R)-4-((R)-1-((5-(6-aminopyridin-2-yl)-1-cyclopropyl-1H-benzo[d]imidazol-7-yl)oxy)ethyl)pyrrolidin-2-one]: the IC50 stood at 8.43 nM.

For the compound `C[C@@H](Oc1nc(-c2ccnc(C3C=NN=C3)c2)cc2ncn(C3CC3)c12)[C@H]1CNC(=O)C1` [(R)-4-((R)-1-((6-(2-(1H-pyrazol-4-yl)pyridin-4-yl)-3-cyclopropyl-3H-imidazo[4,5-c]pyridin-4-yl)oxy)ethyl)pyrrolidin-2-one], the half-inhibitory concentration (IC50) is 8.44 nM.

Regarding `C[C@@H](Oc1nc(-c2cnc(C(C)(C)C)s2)cc2ncn(C3CC3)c12)[C@H]1CNC(=O)C1` [(R)-4-((R)-1-((6-(2-(tert-butyl)thiazol-5-yl)-3-cyclopropyl-3H-imidazo[4,5-c]pyridin-4-yl)oxy)ethyl)pyrrolidin-2-one], the IC50 stood at 2.1 nM.

With `C[C@@H](Oc1nc(-c2ccc(N3CCN(C4COC4)CC3)c(Cl)c2)cc2ncn(C3CC3)c12)[C@H]1CNC(=O)C1` [(R)-4-((R)-1-((6-(3-chloro-4-(4-(oxetan-3-yl)piperazin-1-yl)phenyl)-3-cyclopropyl-3H-imidazo[4,5-c]pyridin-4-yl)oxy)ethyl)pyrrolidin-2-one], the IC50 was found to be 2.76 nM.
